Assay results published in patent US8114991B2, “Amino-1,3,5-triazines N-substituted with chiral bicyclic radicals, process for their preparation, compositions thereof, and their use as herbicides and plant growth regulators” (Bayer Cropscience AG, priority 2003, dated 2012).

Tests used:
[1] = tested on: harmful plants such as Stellaria media, Lolium multiforum, Amaranthus retroflexus, Sinapis alba, Avena sativa and Setaria viridis; assay: Pre-emergence effect on weeds (greenhouse pot test); assay type: in vivo; details: application rate of 1 kg or less of active ingredient per hectare; scored after 3 to 4 weeks by comparison with untreated controls
Text: Seeds or rhizome pieces of monocotyledonous and dicotyledonous weed plants were placed in sandy loam in plastic pots and covered with soil. The compounds according to the invention, which were formulated in the form of wettable powders or emulsion concentrates, were then applied to the surface of the soil cover as aqueous suspension or emulsion at various dosages with an application rate of 600 to 800 l of water per ha (converted).
After the treatment, the pots were placed into a greenhouse and kept under good growth conditions for the weeds. The plant or emergence damage was scored visually after the test plants have emerged after an experimental time of 3 to 4 weeks by comparison with untreated controls.

[2] = tested on: harmful plants such as Sinapis alba, Echinochloa crus-galli, Lolium multiflorum, Stellaria media, Cyperus iria, Amaranthus retroflexus, Setaria viridis, Avena …; assay: Post-emergence effect on weeds (greenhouse pot test); assay type: in vivo; details: application rate of 2 kg or less of active ingredient per hectare; treated in the three-leaf stage; scored after approx. 3 to 4 weeks by comparison with untreated controls

Structure (SMILES): Cc1cc2c(cc1C)[C@H](Nc1nc(N)nc([C@@H](C)F)n1)CC2 [Compound 1.7]
- pre-emergence control of harmful plants (plant or emergence damage scored visually) [1]: very good pre-emergence control
- herbicidal post-emergence activity against harmful plants (scored visually) [2]: very good herbicidal post-emergence activity

Structure (SMILES): CCCCc1nc(N)nc(N[C@@H]2CCCc3ccc(CC)cc32)n1 [Compound 8.257]
- pre-emergence control of harmful plants (plant or emergence damage scored visually) [1]: very good pre-emergence control
- herbicidal post-emergence activity against harmful plants (scored visually) [2]: very good herbicidal post-emergence activity

Structure (SMILES): Cc1ccc2c(c1)C(Nc1nc(N)nc(C(F)C#N)n1)C(C)C2 (mixture of isomers) [Compound 7.243]
- pre-emergence control of harmful plants (plant or emergence damage scored visually) [1]: very good pre-emergence control
- herbicidal post-emergence activity against harmful plants (scored visually) [2]: very good herbicidal post-emergence activity

Structure (SMILES): Cc1nc(N)nc(N[C@@H]2CCc3cc(C)c(C)cc32)n1 [Compound 8.7]
- pre-emergence control of harmful plants (plant or emergence damage scored visually) [1]: very good pre-emergence control
- herbicidal post-emergence activity against harmful plants (scored visually) [2]: very good herbicidal post-emergence activity

Structure (SMILES): CCCc1nc(N)nc(N[C@@H]2CCOc3c(F)cccc32)n1 [Compound 8.240]
- pre-emergence control of harmful plants (plant or emergence damage scored visually) [1]: very good pre-emergence control
- herbicidal post-emergence activity against harmful plants (scored visually) [2]: very good herbicidal post-emergence activity

Structure (SMILES): CCc1ccc2c(c1)[C@H](Nc1nc(N)nc(C(C)(C)F)n1)CC2 [Compound 8.245]
- pre-emergence control of harmful plants (plant or emergence damage scored visually) [1]: very good pre-emergence control
- herbicidal post-emergence activity against harmful plants (scored visually) [2]: very good herbicidal post-emergence activity

Structure (SMILES): Cc1ccc2c(c1C)OCC[C@H]2Nc1nc(N)nc(C(C)(C)F)n1 [Compound 8.241]
- pre-emergence control of harmful plants (plant or emergence damage scored visually) [1]: very good pre-emergence control
- herbicidal post-emergence activity against harmful plants (scored visually) [2]: very good herbicidal post-emergence activity

Structure (SMILES): Nc1nc(N[C@@H]2CCc3ccccc32)nc(C2(Cl)CC2)n1 [Compound 8.183]
- pre-emergence control of harmful plants (plant or emergence damage scored visually) [1]: very good pre-emergence control
- herbicidal post-emergence activity against harmful plants (scored visually) [2]: very good herbicidal post-emergence activity

Structure (SMILES): C[C@@H](F)c1nc(N)nc(N[C@@H]2CCCc3ccccc32)n1 [Compound 1.11]
- pre-emergence control of harmful plants (plant or emergence damage scored visually) [1]: very good pre-emergence control
- herbicidal post-emergence activity against harmful plants (scored visually) [2]: very good herbicidal post-emergence activity

Structure (SMILES): Nc1nc(N[C@@H]2CCCc3ccccc32)nc(C2(F)CC2)n1 [Compound 8.170]
- pre-emergence control of harmful plants (plant or emergence damage scored visually) [1]: very good pre-emergence control
- herbicidal post-emergence activity against harmful plants (scored visually) [2]: very good herbicidal post-emergence activity

Structure (SMILES): Cc1ccc2c(c1)[C@H](Nc1nc(N)nc(C(C)F)n1)CC2 (stereo partly drawn) [Compound 10.2]
- pre-emergence control of harmful plants (plant or emergence damage scored visually) [1]: very good pre-emergence control
- herbicidal post-emergence activity against harmful plants (scored visually) [2]: very good herbicidal post-emergence activity

Structure (SMILES): CCCc1nc(N)nc(N[C@H]2c3ccccc3C[C@@H]2C)n1 [Compound 7.47]
- pre-emergence control of harmful plants (plant or emergence damage scored visually) [1]: very good pre-emergence control
- herbicidal post-emergence activity against harmful plants (scored visually) [2]: very good herbicidal post-emergence activity

Structure (SMILES): Cc1cc(C)c2c(c1)[C@H](Nc1nc(N)nc(C(C)C)n1)CCC2 [Compound 8.252]
- pre-emergence control of harmful plants (plant or emergence damage scored visually) [1]: very good pre-emergence control
- herbicidal post-emergence activity against harmful plants (scored visually) [2]: very good herbicidal post-emergence activity

Structure (SMILES): CCC(F)c1nc(N)nc(NC2CCCc3c(C)cc(C)cc32)n1 (mixture of isomers) [Compound 10.68]
- pre-emergence control of harmful plants (plant or emergence damage scored visually) [1]: very good pre-emergence control
- herbicidal post-emergence activity against harmful plants (scored visually) [2]: very good herbicidal post-emergence activity

Structure (SMILES): COCc1nc(N)nc(N[C@@H]2CCc3ccccc32)n1 [Compound 8.233]
- pre-emergence control of harmful plants (plant or emergence damage scored visually) [1]: very good pre-emergence control
- herbicidal post-emergence activity against harmful plants (scored visually) [2]: very good herbicidal post-emergence activity

Structure (SMILES): CCc1nc(N)nc(N[C@@H]2CCc3ccc(C)cc32)n1 [Compound 8.25]
- pre-emergence control of harmful plants (plant or emergence damage scored visually) [1]: very good pre-emergence control
- herbicidal post-emergence activity against harmful plants (scored visually) [2]: very good herbicidal post-emergence activity

Structure (SMILES): Cc1nc(N)nc(N[C@@H]2CCCc3ccccc32)n1 [Compound 8.11]
- pre-emergence control of harmful plants (plant or emergence damage scored visually) [1]: very good pre-emergence control
- herbicidal post-emergence activity against harmful plants (scored visually) [2]: very good herbicidal post-emergence activity

Structure (SMILES): C[C@H]1Cc2ccccc2[C@@H]1Nc1nc(N)nc(C(F)(F)F)n1 [Compound 7.239]
- pre-emergence control of harmful plants (plant or emergence damage scored visually) [1]: very good pre-emergence control
- herbicidal post-emergence activity against harmful plants (scored visually) [2]: very good herbicidal post-emergence activity

Structure (SMILES): CCc1ccc2c(c1)[C@H](Nc1nc(C)nc(N)n1)CC2 [Compound 8.246]
- pre-emergence control of harmful plants (plant or emergence damage scored visually) [1]: very good pre-emergence control
- herbicidal post-emergence activity against harmful plants (scored visually) [2]: very good herbicidal post-emergence activity

Structure (SMILES): Cc1ccc2c(c1)[C@H](Nc1nc(N)nc(C(F)(F)F)n1)[C@@H](C)C2 [Compound 7.240]
- pre-emergence control of harmful plants (plant or emergence damage scored visually) [1]: very good pre-emergence control
- herbicidal post-emergence activity against harmful plants (scored visually) [2]: very good herbicidal post-emergence activity

Structure (SMILES): CCc1nc(N)nc(N[C@H]2c3ccccc3C[C@@H]2C)n1 [Compound 7.74]
- pre-emergence control of harmful plants (plant or emergence damage scored visually) [1]: very good pre-emergence control
- herbicidal post-emergence activity against harmful plants (scored visually) [2]: very good herbicidal post-emergence activity

Structure (SMILES): Cc1cc(C)c2c(c1)[C@H](Nc1nc(N)nc([C@@H](C)F)n1)CCC2 [Compound 1.15]
- pre-emergence control of harmful plants (plant or emergence damage scored visually) [1]: very good pre-emergence control
- herbicidal post-emergence activity against harmful plants (scored visually) [2]: very good herbicidal post-emergence activity

Structure (SMILES): CC(C)c1nc(N)nc(N[C@H]2c3ccccc3C[C@@H]2C)n1 [Compound 7.24]
- pre-emergence control of harmful plants (plant or emergence damage scored visually) [1]: very good pre-emergence control
- herbicidal post-emergence activity against harmful plants (scored visually) [2]: very good herbicidal post-emergence activity

Structure (SMILES): CCCc1nc(N)nc(N[C@@H]2CCOc3ccc(C)cc32)n1 [Compound 8.231]
- pre-emergence control of harmful plants (plant or emergence damage scored visually) [1]: very good pre-emergence control
- herbicidal post-emergence activity against harmful plants (scored visually) [2]: very good herbicidal post-emergence activity

Structure (SMILES): CCc1nc(N)nc(N[C@@H]2CCOc3c(F)cccc32)n1 [Compound 8.239]
- pre-emergence control of harmful plants (plant or emergence damage scored visually) [1]: very good pre-emergence control
- herbicidal post-emergence activity against harmful plants (scored visually) [2]: very good herbicidal post-emergence activity

Structure (SMILES): CCC(F)c1nc(N)nc(N[C@@H]2CCOc3ccc(C)cc32)n1 (stereo partly drawn) [Compound 10.57]
- pre-emergence control of harmful plants (plant or emergence damage scored visually) [1]: very good pre-emergence control
- herbicidal post-emergence activity against harmful plants (scored visually) [2]: very good herbicidal post-emergence activity

Structure (SMILES): CCC(F)c1nc(N)nc(N[C@@H]2CCc3ccc(F)cc32)n1 (mixture of isomers) [Compound 10.38]
- pre-emergence control of harmful plants (plant or emergence damage scored visually) [1]: very good pre-emergence control
- herbicidal post-emergence activity against harmful plants (scored visually) [2]: very good herbicidal post-emergence activity

Structure (SMILES): COCc1nc(N)nc(N[C@@H]2CCCc3ccccc32)n1 [Compound 8.234]
- pre-emergence control of harmful plants (plant or emergence damage scored visually) [1]: very good pre-emergence control
- herbicidal post-emergence activity against harmful plants (scored visually) [2]: very good herbicidal post-emergence activity

Structure (SMILES): COc1ccc2c(c1)[C@H](Nc1nc(N)nc(C(C)(C)F)n1)CC2 [Compound 8.243]
- pre-emergence control of harmful plants (plant or emergence damage scored visually) [1]: very good pre-emergence control
- herbicidal post-emergence activity against harmful plants (scored visually) [2]: very good herbicidal post-emergence activity

Structure (SMILES): Cc1ccc2c(c1)[C@H](Nc1nc(C)nc(N)n1)CCO2 [Compound 8.21]
- pre-emergence control of harmful plants (plant or emergence damage scored visually) [1]: very good pre-emergence control
- herbicidal post-emergence activity against harmful plants (scored visually) [2]: very good herbicidal post-emergence activity

Structure (SMILES): Cc1ccc2c(c1)[C@H](Nc1nc(N)nc([C@@H](C)F)n1)CCC2 [Compound 1.12]
- pre-emergence control of harmful plants (plant or emergence damage scored visually) [1]: very good pre-emergence control
- herbicidal post-emergence activity against harmful plants (scored visually) [2]: very good herbicidal post-emergence activity

Structure (SMILES): Cc1cc2c(cc1C)[C@H](Nc1nc(N)nc([C@H](C)F)n1)CC2 [Compound 3.7]
- pre-emergence control of harmful plants (plant or emergence damage scored visually) [1]: very good pre-emergence control
- herbicidal post-emergence activity against harmful plants (scored visually) [2]: very good herbicidal post-emergence activity

Structure (SMILES): Nc1nc(N[C@@H]2CCCc3ccccc32)nc(C(F)(F)F)n1 [Compound 8.254]
- pre-emergence control of harmful plants (plant or emergence damage scored visually) [1]: very good pre-emergence control
- herbicidal post-emergence activity against harmful plants (scored visually) [2]: very good herbicidal post-emergence activity

Structure (SMILES): C[C@H](F)c1nc(N)nc(N[C@@H]2CCc3ccccc32)n1 [Compound 3.1]
- pre-emergence control of harmful plants (plant or emergence damage scored visually) [1]: very good pre-emergence control
- herbicidal post-emergence activity against harmful plants (scored visually) [2]: very good herbicidal post-emergence activity

Structure (SMILES): COCc1nc(N)nc(N[C@@H]2CCCc3c(C)cc(C)cc32)n1 [Compound 8.253]
- pre-emergence control of harmful plants (plant or emergence damage scored visually) [1]: very good pre-emergence control
- herbicidal post-emergence activity against harmful plants (scored visually) [2]: very good herbicidal post-emergence activity

Structure (SMILES): Cc1ccc2c(c1)[C@H](Nc1nc(N)nc(C(C)C)n1)CCC2 [Compound 8.71]
- pre-emergence control of harmful plants (plant or emergence damage scored visually) [1]: very good pre-emergence control
- herbicidal post-emergence activity against harmful plants (scored visually) [2]: very good herbicidal post-emergence activity
